Reference: patent US12600728B2, “Interleukin-17 inhibitors” (priority 2020, dated 2026)
Like-named read-outs stand apart in the source and are kept apart here.

Tests used:
[1] = molecular target: recombinant human IL-17AA (Homo sapiens, UniProt Q16552); experiment: IL-6 release from NHDF cells, IL-17AA plus TNF-α stimulation; assay type: cell-based; conditions: 24 hours, IL-6 by ELISA
Method: IL-6 Release from NHDF Cells (Normal Human Dermal Fibroblasts)
NHDF cells isolated from normal adult mesoderm, connective tissues were cultured in fibroblast growth medium containing 2% supplement. […] The cells were allowed to adhere overnight before they were incubated with the compound/cytokine cocktail.
Diluted compounds were pre-incubated with recombinant human IL-17AA or IL-17AF plus human TNF-α for 30 minutes at room temperature on a shaker. […] The cells were incubated with the compound/cytokines cocktail for 24 hours at 37° C. (5% CO2). […] The final DMSO or plasma concentrations were 0.1% or 20%, respectively. All compound incubations were done in duplicate. The supernatants were collected to quantify IL-6 by ELISA according to the manufacturers instructions. The optical density was measured at 450 nm by an EnVision Multilabel Plate Reader (Perkin Elmer). The IL-6 levels produced after TNF-α stimulation were subtracted from the IL-6 produced after IL-17/TNF-α co-stimulation. These IL-17-specific IL-6 concentrations were used for […] value calculation.

[2] = molecular target: biotinylated human IL-17A / AF647-labeled human IL-17RA (Homo sapiens, UniProt Q16552); experiment: Human IL-17A×IL-17RA TR-FRET assay; assay type: binding
Method: Human IL-17A×IL-17RA TR-FRET Assay
Each compound concentration is tested in duplicate.
The final total assay volume is 10 μL.
Each plate contains test compounds in columns 1-22 and controls in columns 23 and 24. The neutral control (NC) contains all the assay components, but DMSO instead of test compound. […] The fluorescence values for emission at 615 nm and 665 nm are loaded to the evaluation software Helios.
From the activity data at each compound concentration, the IC50 values are obtained using the 4-parameter logistic function (“Hill-slope model”) of Helios.

[3] = NHDF cells, IL-17AA 30 pM plus TNF-α 6 pM, read-out: IL17AA + TNF IC50 IL-6
[4] = TR-FRET, biotinylated human IL-17A 5 nM, AF647-labeled human IL-17RA 30 nM, read-out: IL17AA FRET/ IL17Rawt IC50
[5] = IL17AA + TNF IC50 IL-6, NHDF cells, IL-17AA 30 pM plus TNF-α 6 pM
[6] = IL17AA FRET/ IL17Rawt IC50, TR-FRET, biotinylated human IL-17A 5 nM, AF647-labeled human IL-17RA 30 nM
[7] = NHDF cells, IL-17AA 30 pM + TNF-α 6 pM, read-out: IL17AA + TNF IC50 IL-6
[8] = TR-FRET, 5 nM IL-17A, 30 nM IL-17RA, read-out: IL17AA FRET/ IL17Rawt IC50

biotinylated human IL-17A / AF647-labeled human IL-17RA, sequence (Q16552 24-155): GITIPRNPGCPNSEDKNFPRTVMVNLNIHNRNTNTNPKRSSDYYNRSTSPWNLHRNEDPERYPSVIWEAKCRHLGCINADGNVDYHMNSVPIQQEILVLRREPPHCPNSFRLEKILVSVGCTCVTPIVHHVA
recombinant human IL-17AA, sequence (Q16552 24-155): as above

Compound	IC50 [1, 3]	IC50 [2, 4]	also measured
Cc1cc[n+]([O-])c(C)c1-c1ccc(NC(=O)[C@@H](NC(=O)c2ccnn2C)[C@H]2CC=C(F)CC2)cc1 (single isomer, unassigned) [Example 12b, 3-(4-((S)-2-((R)-4-fluorocyclohex-3-en-1-yl)-2-(1-methyl-1H-pyrazole-5-carboxamido)acetamido)phenyl)-2,4-dimethylpyridine 1-oxide or 3-(4-((S)-2-((S)-4-fluorocyclohex-3-en-1-yl)-2-(1-methyl-1H-pyrazole-5-carboxamido)acetamido)phenyl)-2,4-dimethylpyridine 1-oxide]	8 nM	151 nM	
Cc1c(-c2ccc(NC(=O)C(NC(=O)c3ccnn3C)C3CC4C(C3)C4(F)F)cc2)c(Cl)cc[n+]1[O-] (single isomer, unassigned) [Example 54a]			IC50 [1, 5]: 34 nM; IC50 [2, 6]: 28 nM
CCn1nccc1C(=O)NC(C(=O)Nc1ccc(-c2c(C(F)(F)F)cc[n+]([O-])c2C)cc1)C1CC2CC2C1 (single isomer, unassigned) [Example 64]			IC50 [1, 5]: 25 nM; IC50 [2, 6]: 74 nM
CCn1nccc1C(=O)NC(C(=O)Nc1ccc(-c2c(Cl)cc[n+]([O-])c2C)cc1)C1CC2CC2C1 (single isomer, unassigned) [Example 145]			IC50 [1, 7]: 23.5 nM; IC50 [2, 8]: 24 nM
Cc1nocc1C(=O)NC(C(=O)Nc1ccc(-c2c(Cl)cc[n+]([O-])c2C)cc1)C1CC2CC2C1 (single isomer, unassigned) [Example 181]			IC50 [1, 7]: 64 nM; IC50 [2, 8]: 54.8 nM
Cc1cc[n+]([O-])c(C)c1-c1ccc(NC(=O)C(NC(=O)c2ccc3n2CCN(C)C3)C2CC3CC3C2)cc1 (single isomer, unassigned) [Example 192]			IC50 [1, 7]: 142 nM; IC50 [2, 8]: 151 nM
Cc1nocc1C(=O)NC(C(=O)Nc1ccc(-c2c(Cl)cc[n+]([O-])c2C)cc1)C1CC2CC2C1 (single isomer, unassigned) [Example 198]			IC50 [1, 7]: 94 nM; IC50 [2, 8]: 222 nM
CCn1nccc1C(=O)NC(C(=O)Nc1ccc(-c2c(Cl)cc[n+]([O-])c2C)cc1)C1CC2CC2C1 (single isomer, unassigned) [Example 209]			IC50 [1, 7]: 175 nM; IC50 [2, 8]: 381 nM
Cc1cc[n+]([O-])c(C)c1-c1ccc(NC(=O)[C@@H](NC(=O)c2ccnn2C)[C@H]2CCCc3ccccc32)cc1 [Example 1, 2,4-dimethyl-3-(4-((S)-2-(1-methyl-1H-pyrazole-5-carboxamido)-2-((S)-1,2,3,4-tetrahydronaphthalen-1-yl)acetamido)phenyl)pyridine 1-oxide]	4 nM	8 nM	
Cc1c(-c2ccc(NC(=O)[C@@H](NC(=O)c3ccnn3C)C3CCCCC3)cc2F)c(Cl)cc[n+]1[O-] [Example 2, 4-chloro-3-(4-((S)-2-cyclohexyl-2-(1-methyl-1H-pyrazole-5-carboxamido)acetamido)-2-fluorophenyl)-2-methylpyridine 1-oxide]	15 nM	24 nM	
CCn1nccc1C(=O)NC(C(=O)Nc1ccc(-c2c(C)cc[n+]([O-])c2C)cc1)C1CCC(C(F)(F)F)CC1 [Example 7, 3-(4-((S)-2-(1-ethyl-1H-pyrazole-5-carboxamido)-2-((1r,4S)-4-(trifluoromethyl)cyclohexyl)acetamido)phenyl)-2,4-dimethylpyridine 1-oxide]			IC50 [1, 5]: 26 nM; IC50 [2, 6]: 46 nM
COCCn1nccc1C(=O)N[C@H](C(=O)Nc1ccc(-c2c(Cl)cc[n+]([O-])c2C)c(F)c1)C1CCCCC1 [Example 15, 4-chloro-3-(4-((S)-2-cyclohexyl-2-(1-(2-methoxyethyl)-1H-pyrazole-5-carboxamido)acetamido)-2-fluorophenyl)-2-methylpyridine 1-oxide]	10 nM	52 nM	
Cc1nscc1C(=O)N[C@H](C(=O)Nc1ccc(-c2c(Cl)cc[n+]([O-])c2C)c(F)c1)C1CCCCC1 [Example 17, 4-chloro-3-(4-((S)-2-cyclohexyl-2-(3-methylisothiazole-4-carboxamido)acetamido)-2-fluorophenyl)-2-methylpyridine 1-oxide]	18 nM	118 nM	

More lines, main results first:

IC50 [1, 3]	IC50 [2, 4]	Compound	also measured
11 nM	16 nM	CCn1nccc1C(=O)N[C@H](C(=O)Nc1ccc(-c2c(Cl)cc[n+]([O-])c2C)cc1)C1CCC(F)(F)CC1 (single isomer, unassigned) [Example 13a]	
7 nM	24 nM	Cc1cc[n+]([O-])c(C)c1-c1ccc(NC(=O)C(NC(=O)c2ccnn2C)C2CCC(C)CC2)cc1 [Example 3, 2,4-dimethyl-3-(4-((S)-2-(1-methyl-1H-pyrazole-5-carboxamido)-2-((1r,4S)-4-methylcyclohexyl)acetamido)phenyl)pyridine 1-oxide]	
12 nM	26 nM	CCc1nocc1C(=O)NC(C(=O)Nc1ccc(-c2c(Cl)cc[n+]([O-])c2C)cc1)C1CCC(C(F)(F)F)CC1 [Example 4, 4-chloro-3-(4-((S)-2-(3-ethylisoxazole-4-carboxamido)-2-((1r,4S)-4-(trifluoromethyl)cyclohexyl)acetamido)phenyl)-2-methylpyridine 1-oxide]	
4 nM	41 nM	CCc1nocc1C(=O)NC(C(=O)Nc1ccc(-c2c(C)cc[n+]([O-])c2C)cc1)C1CCC(C(F)(F)F)CC1 [Example 8, 3-(4-((S)-2-(3-ethylisoxazole-4-carboxamido)-2-((1r,4S)-4-(trifluoromethyl)cyclohexyl)acetamido)phenyl)-2,4-dimethylpyridine 1-oxide]	
4 nM	60 nM	Cc1nocc1C(=O)N[C@H](C(=O)Nc1ccc(-c2c(C(F)(F)F)cc[n+]([O-])c2C)cc1)[C@H]1CCCC(F)(F)C1 [Example 9, 3-(4-((S)-2-((S)-3,3-difluorocyclohexyl)-2-(3-methylisoxazole-4-carboxamido)acetamido)phenyl)-2-methyl-4-(trifluoromethyl)pyridine 1-oxide]	
11 nM	93 nM	CCn1nccc1C(=O)N[C@H](C(=O)Nc1ccc(-c2c(C(F)(F)F)cc[n+]([O-])c2C)cc1)[C@H]1CCCC(F)(F)C1 [Example 10, 3-(4-((S)-2-((S)-3,3-difluorocyclohexyl)-2-(1-ethyl-1H-pyrazole-5-carboxamido)acetamido)phenyl)-2-methyl-4-(trifluoromethyl)pyridine 1-oxide]	
20 nM	82 nM	CCn1nccc1C(=O)N[C@H](C(=O)Nc1ccc(-c2c(C(F)(F)F)cc[n+]([O-])c2C)cc1)C1CCC(F)(F)CC1 [Example 11, (S)-3-(4-(2-(4,4-difluorocyclohexyl)-2-(1-ethyl-1H-pyrazole-5-carboxamido)acetamido)phenyl)-2-methyl-4-(trifluoromethyl)pyridine 1-oxide]	
9 nM	24 nM	Cc1nocc1C(=O)N[C@H](C(=O)Nc1ccc(-c2c(Cl)cc[n+]([O-])c2C)c(F)c1)C1CCCCC1 [Example 14, 4-chloro-3-(4-((S)-2-cyclohexyl-2-(3-methylisoxazole-4-carboxamido)acetamido)-2-fluorophenyl)-2-methylpyridine 1-oxide]	
28 nM	25 nM	Cc1c(-c2ccc(NC(=O)C(NC(=O)c3ccnn3C)C3CCC(C(F)(F)F)CC3)cc2)c(Cl)cc[n+]1[O-] [Example 18, 4-chloro-2-methyl-3-(4-((S)-2-(1-methyl-1H-pyrazole-5-carboxamido)-2-((1r,4S)-4-(trifluoromethyl)cyclohexyl)acetamido)phenyl)pyridine 1-oxide]	
20 nM	26 nM	Cc1nocc1C(=O)NC(C(=O)Nc1ccc(-c2c(Cl)cc[n+]([O-])c2C)cc1)C1CCC(C(F)(F)F)CC1 [Example 19, 4-chloro-2-methyl-3-(4-((S)-2-(3-methylisoxazole-4-carboxamido)-2-((1r,4S)-4-(trifluoromethyl)cyclohexyl)acetamido)phenyl)pyridine 1-oxide]	
31 nM	39 nM	CCn1nccc1C(=O)N[C@H](C(=O)Nc1ccc(-c2c(C(F)(F)F)cc[n+]([O-])c2C)cc1)C1CCCC1 [Example 21, (S)-3-(4-(2-cyclopentyl-2-(1-ethyl-1H-pyrazole-5-carboxamido)acetamido)phenyl)-2-methyl-4-(trifluoromethyl)pyridine 1-oxide]	
